Test results: patent publication US20040071656A1, “Modulation of heat-shock-protein-based immunotherapies” (priority 2001, published 2004)
No end group written: not given here. *: point of attachment. FITC = O=C1OC2(c3ccc(O)cc3Oc3cc(O)ccc32)c2ccc(NC(=S)*)cc21

Key:
[1] = biological target: T1, exoplasmic domain of human CD40 (GST-CD40) (Homo sapiens, UniProt P25942); assay: GST-CD40 binding and competition assay with recombinant Hsp70 and its domains
T1 construct: The cDNA for the exoplasmic domain of CD40 (amino acids 20-212); made in house; host or cells: E. coli, pGEX-2T
Experimental: For binding assays with recombinant Hsp70 and its domains, 3 μM His6-Hsp70 or its His6-tagged domains were incubated with 2 mM ATP, 2 mM ADP or 2 mM ADP and 28 μM peptide C in 50 μl binding buffer (10 mM MOPS/KOH, pH 7.2, 150 mM KCl and 3 mM MgCl2) for 30 min at 37° C. In competition experiments binding was probed with either a 10-fold excess of Hsp70, the two domains, or DnaK, or with a 5-fold excess of Hip or Bag 1 for 10 min at 0° C. To this end, Hsp70, N70, C70 and DnaK were preincubated with ADP, ATP and peptide C as described above. For comparison of CD40 binding of Hsp70 and its N-terminal domain, Hsp70 was preincubated in the presence or absence (mock treatment) of a 30-fold molar excess of peptide C. 3 μM of GST or GST-CD40 was added to the samples and incubated for 20 min at 16° C. For titration of peptide C, 5- to 50-fold excess of peptide C (15-150 μM) was added to the preincubation of Hsp70. Thereafter the samples were combined with 20 μl of 1% BSA-treated Glutathione Sepharose 4 Fast Flow and incubated in the presence of 2 mM DTT for another 20 min at 16° C. Unbound proteins were removed by washing the beads three times with 1 ml PBS, and immobilized proteins eluted with 30 μl elution buffer for 20 min at 22° C. 10 μl of the eluates were subjected to SDS-PAGE and analyzed by immunoblotting using a Penta-His-antibody (Quiagen). Blot signals were quantified by Quantity One (Biorad).
Details for FIG. 3. Binding of Hsp70 to CD40 is direct and depends on ADP. A. Hela-cell lysates were incubated with GST (control), or GST-CD40 in the amounts indicated. Thereafter samples were affinity purified on glutathione-Sepharose as outlined in Experimental Procedures, subjected to SDS-PAGE and analyzed by immunoblotting with antibodies directed against Hsc70 and Hsp70 (upper lanes), and against Hsp90 (lower lanes). B. Human recombinant His6-tagged Hsp70 was incubated with ATP, ADP, or an excess of peptide C, followed by addition of GST-CD40 or GST alone. After affinity purification samples were analyzed by immunoblotting as described in A, using antibodies directed against the His6-tag. C. Recombinant human His6-tagged Hsp70 was incubated with peptide C, either in the presence or absence of ADP. The reactions were then incubated with ANA1-cell lysates as described in Experimental Procedures. Protein bound to Hsp70 was analyzed by affinity purification on Ni-NTA-agarose and immunoblotting with antibodies directed against CD40.
Details for FIG. 4. Hsp70 binding to CD40 is mediated by the N-terminal ATPase domain and is competed by Hip. A. Human His6-tagged Hsp70, its N- or C-terminal domains, or recombinant bacterial DnaK was incubated either with GST-CD40, or with GST. B. Recombinant DnaK was incubated with ATP, ADP, or an excess of peptide C, followed by addition of GST-CD40 or GST alone. C. His6-tagged N-terminal domain of Hsp70 (N70) was incubated in the presence of ATP or ADP, followed by incubation with a 10-fold molar excess of Hsp70 in the presence of ADP or ATP. D: Recombinant human His6-tagged Hsp70 protein was incubated with a 5-fold molar excess of either recombinant Hip protein or Bag-1, and with GST-CD40 or GST as a control. Bound protein was analyzed after affinity purification on glutathione-Sepharose by immunoblotting with an antibody directed against the N-terminal His6-tags or with an antibody directed against DnaK.
Details for FIG. 5. Peptide substrate stimulates Hsp70 binding to CD40. A. His6-tagged Hsp70 was incubated with increasing concentrations of peptide C as indicated in the Figure, and binding to GST-CD40 analyzed by immunoblotting with antibodies directed against the His6-tag. The lower panel is a quantitation of the data. B. Equivalent concentrations (3 μM) of His6-tagged Hsp70 (in the presence of a 30-fold molar excess of peptide C) or His6-tagged N70 was incubated with GST-CD40, and bound protein was analyzed as described above.

[2] = biological target: T2, human CD40 (Homo sapiens, UniProt P25942); assay: Uptake of peptide C-FITC in HEK293T-CD40 cells, confocal microscopy; type: cell-based; details: 0.5 μM protein, 5 μM peptide C-FITC, ADP, 30 min 0° C. then 15 min 37° C.
T2 construct: CD40 full-length cDNA was cloned by PCR; expressed in transfected cells
Experimental: For experiments to study uptake of Hsp70/peptide C-FITC complex, HEK293T-CD40 and HEK293T-MCAT cells were seeded on collagen-coated cover slips 24 h prior to the experiment. For complex formation Hsp70, its N-terminal domain (N70) or its C-terminal domain (C70) were preincubated with a 10-fold molar excess of peptide C-FITC for 30 min at 37° C., as described above for the biotinylated proteins. HEK293T-CD40 and HEK293T-MCAT were incubated with 0.5 μM of Hsp70, N70 or C70, preincubated with 2 mM ADP and 5 μM peptide C-FITC, or 5 μM peptide C-FITC alone for 30 min on ice. Thereafter the cells were washed three times with medium, incubated for 15 min at 37° C., and fixed, embedded in Fluoromount-G and analyzed by confocal microscopy (LSM 510, Zeiss).
Next, the binding of Hsp70-peptide complex to CD40 was studied, which results in the uptake of peptide. To this end, HEK293T-CD40 cells and HE293T-MCAT cells (not expressing CD40) were incubated with a fluorescent (FITC) derivative of peptide C for 30 min at 0° C. in the presence of ADP, with or without Hsp70 or its two domains. After removal of excess material, the cells were incubated at 37° C. for 15 min, fixed and then analyzed by fluorescence microscopy. […] (FIG. 6B, panel 1). […] Neither did HEK293T-MCAT control cells give rise to a signal under any of the conditions tested (not shown). We conclude that the specific interaction of CD40 with Hsp70-peptide complex mediates the uptake of peptide.
Details for FIG. 6. Binding of Hsp70 complex to CD40-expressing HEK293T cells induces signaling via p38 and causes peptide uptake. A. HEK293T-cells, stably transfected with cDNA encoding human CD40 or the unrelated membrane protein murine cationic amino acid transporter (MCAT) were incubated for 20 min at 37° C. with CD40L or with Hsp70, C70, N70, bacterial DnaK either in the presence of ADP or AMPPNP, or buffer alone. Thereafter cells were washed, solubilized in SDS-sample buffer, and analyzed by immunoblotting with antibodies directed against phosphorylated (active) p38. Blots were also developed with an antibody against tubulin in order to control for equal loading. B. Cells were incubated at 0° C. for 30 min with recombinant human Hsp70, N70, or C70, all in the presence FITC-labeled peptide, or with the FITC-labeled peptide alone. Thereafter cells were washed, incubated for 15 min at 37° C., and processed for fluorescence microscopy. Upper left panel: Hsp70, upper right panel: FITC-labeled peptide alone, lower left panel: C70, lower right panel: N70. Only cells stably transfected with CD40 are shown. Cell boundaries are emphasized with broken lines.

[3] = biological target: T2, human CD40; assay: Binding to Cos-7 cells transiently transfected with human CD40 cDNA, fluorescence microscopy; type: cell-based; details: 250 nM biotinylated protein, 30 min at 0° C.
Experimental: Cell culture and fluorescence microscopy. The murine macrophage cell line ANA1 was kindly provided by H. Wagner (Munich, Germany). ANA-1 cells were cultured in VLE-RPMI 1640 (Biochrom), supplemented with 10% FCS, 2 mM L-glutamine and antibiotics. For fluorescence microscopy, ANA1 cells were either stimulated with LPS (20 μg/ml, Sigma, Germany), or kept in an LPS-free medium (mock treatment) for 7 h. After stimulation, cells were harvested and incubated with 100 nM biotinylated Hsp70, biotinylated GST, or Hsp70/peptide C-biotin complex for 30 min at 0° C. in VLE-RPMI 1640. After incubation cells were processed for staining with streptavidin-TRITC (Sigma, Germany), fixed with paraformaldehyde and analyzed by fluorescence microscopy (Axiovert 35, Zeiss) as described (Sondermann et al., 2000). […] Twenty-four h post-transfection cells were incubated with 250 nM biotinylated Hsp70, biotinylated GST or Hsp70/peptide C-biotin complex for 30 min at 0° C. in DMEM, fixed, stained with streptavidin-TRITC (Sigma, Germany), and analyzed by fluorescence microscopy as described (Sondermann et al., 2000, idem). […] Stably transfected cell lines were analyzed by immunoblotting for CD40 expression using an anti-CD40 antibody (CSA180, Stressgen). […]
Mock-treated and LPS-stimulated ANA-1 cells were analyzed for their expression of CD40. […]

[4] = biological target: Hsp70; details: Greene et al., 1995; read-out: affinity of peptide C for Hsp70; cited from earlier work
[5] = biological target: T1, exoplasmic domain of human CD40 (GST-CD40); assay: GST-CD40 pull-down of endogenous heat shock proteins from Hela cell lysate; type: binding; details: 80 or 400 pmol GST-CD40, immunoblot
Experimental: Binding assays with GST-CD40. For binding of endogenous Hsp70 and Hsc70 from Hela cell lysate, Hela cells were lysed as described above and centrifuged at 100,000 g at 4° C. for 1 h. 20 μl bed volume of Glutathione Sepharose 4 Fast Flow (Amersham Pharmacia) per sample were preincubated with 80 pmol or 400 pmol of GST or GST-CD40 fusion protein in 50 μl binding buffer. Unbound protein was removed by washing three times with PBS. The beads were treated with 1% BSA/PBS to avoid non-specific binding, and than incubated with 150 μl of Hela cell lysate in the presence of 2 mM DTT for 20 min at 16° C. […] 10 μl of the eluates was subjected to SDS-PAGE and analyzed by immunoblotting using an anti-Hsc/Hsp70 antibody and an anti-Hsp90: antibody (SPA822 and SPA835, Stressgen). […]
Details for FIG. 3. […] Thereafter samples were affinity purified on glutathione-Sepharose as outlined in Experimental Procedures, subjected to SDS-PAGE and analyzed by immunoblotting with antibodies directed against Hsc70 and Hsp70 (upper lanes), and against Hsp90 (lower lanes). […] After affinity purification samples were analyzed by immunoblotting as described in A, using antibodies directed against the His6-tag. […] Protein bound to Hsp70 was analyzed by affinity purification on Ni-NTA-agarose and immunoblotting with antibodies directed against CD40.

T2 sequence (P25942 21-277): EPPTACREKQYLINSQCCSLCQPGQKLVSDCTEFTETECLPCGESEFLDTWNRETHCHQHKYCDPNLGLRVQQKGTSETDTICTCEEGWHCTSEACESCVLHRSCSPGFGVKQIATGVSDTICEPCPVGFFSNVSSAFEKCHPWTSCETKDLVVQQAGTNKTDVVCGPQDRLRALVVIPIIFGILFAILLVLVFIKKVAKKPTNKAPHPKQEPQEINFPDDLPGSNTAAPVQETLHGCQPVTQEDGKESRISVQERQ
T1 sequence (P25942 20-212): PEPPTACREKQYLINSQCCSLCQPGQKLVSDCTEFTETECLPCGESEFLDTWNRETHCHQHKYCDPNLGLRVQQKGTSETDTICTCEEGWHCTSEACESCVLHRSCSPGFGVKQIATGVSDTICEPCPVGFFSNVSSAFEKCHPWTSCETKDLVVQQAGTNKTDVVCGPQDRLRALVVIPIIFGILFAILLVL

C70: Recombinant C-terminal peptide-binding domain of human Hsp70, residues 382-641
competition for the binding of full-length Hsp70 to CD40 ([1]; ADP, 5-fold molar excess of competitor): neither the C-terminal Hsp70 domain (C70) nor DnaK had a significant effect on binding
uptake of fluorescent (FITC) peptide C into HEK293T-CD40 cells [2]: did not result in a peptide signal above background

FITC-GCEVFGLGWRSYKH ({FITC}-GCEVFGLGWRSYKH) [reference compound]
uptake of fluorescent (FITC) peptide C into HEK293T-CD40 cells [2]: No staining above background

GCEVFGLGWRSYKH [peptide C, reference compound]
binding to CD40-transfected Cos-7 cells [3]: no binding above background
effect of peptide C on binding of Hsp70-ADP to CD40 ([1]; 5- to 50-fold excess of peptide C (15-150 μM), ADP): increased dramatically
effect of peptide C on binding of DnaK to CD40 ([1]; 10-fold molar excess of peptide C): almost completely abolishes the binding of DnaK to CD40
competition of peptide C with the Hsp70-CD40 interaction ([1]; molar excess of peptide C over Hsp70, ADP): did not compete with the interaction
ka of the saturable effect of peptide on Hsp70-ADP binding to CD40 ([1]; titration of peptide C, 3 μM Hsp70, ADP): ~30 µM
Kd [4]: 5 to 10 µM

Hsc70: Endogenous mammalian Hsp70 family member in Hela-cell lysates
binding to GST-CD40 from Hela-cell lysates [5]: bound to GST-CD40 in a concentration dependent manner
